According to US20260125378A2, “Heterocyclic Compounds” (BeOne Medicines I GmbH, priority 2023, published 2026):

Key:
[1] = molecular target: T1, Full length DGKα (D21-10BG, SignalChem) (Homo sapiens, UniProt P23743); experiment: Biochemical DGK IC50 assay (ADP-Glo, lipid micelle substrate), DGKα; settings: 1 hour preincubation, 1 hour reaction, room temperature
T1 construct: Full length DGKα (D21-10BG, SignalChem); purchased SignalChem D21-10BG
Method in brief: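 ADP-Glo luminescence quantified ADP produced after a 1 h room-temperature reaction of full-length DGKα on DAG/PS micelles, in HEPES buffer containing MgCl2, CaCl2, vanadate, BSA and Tween-20. IC50 values derive from activity inhibition over a compound concentration series.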

[2] = molecular target: T2, Full length DGKζ (in-house protein M1-V929) (Homo sapiens, UniProt Q13574); experiment: Biochemical DGK IC50 assay (ADP-Glo, lipid micelle substrate), DGKζ; settings: 1 hour preincubation, 1 hour reaction, room temperature
T2 construct: His (N); TEV site (N); made in house; host or cells: Sf9 insect cells (Bac-to-Bac baculovirus)
T2 sequence (Q13574 1-929 isoform Q13574-4): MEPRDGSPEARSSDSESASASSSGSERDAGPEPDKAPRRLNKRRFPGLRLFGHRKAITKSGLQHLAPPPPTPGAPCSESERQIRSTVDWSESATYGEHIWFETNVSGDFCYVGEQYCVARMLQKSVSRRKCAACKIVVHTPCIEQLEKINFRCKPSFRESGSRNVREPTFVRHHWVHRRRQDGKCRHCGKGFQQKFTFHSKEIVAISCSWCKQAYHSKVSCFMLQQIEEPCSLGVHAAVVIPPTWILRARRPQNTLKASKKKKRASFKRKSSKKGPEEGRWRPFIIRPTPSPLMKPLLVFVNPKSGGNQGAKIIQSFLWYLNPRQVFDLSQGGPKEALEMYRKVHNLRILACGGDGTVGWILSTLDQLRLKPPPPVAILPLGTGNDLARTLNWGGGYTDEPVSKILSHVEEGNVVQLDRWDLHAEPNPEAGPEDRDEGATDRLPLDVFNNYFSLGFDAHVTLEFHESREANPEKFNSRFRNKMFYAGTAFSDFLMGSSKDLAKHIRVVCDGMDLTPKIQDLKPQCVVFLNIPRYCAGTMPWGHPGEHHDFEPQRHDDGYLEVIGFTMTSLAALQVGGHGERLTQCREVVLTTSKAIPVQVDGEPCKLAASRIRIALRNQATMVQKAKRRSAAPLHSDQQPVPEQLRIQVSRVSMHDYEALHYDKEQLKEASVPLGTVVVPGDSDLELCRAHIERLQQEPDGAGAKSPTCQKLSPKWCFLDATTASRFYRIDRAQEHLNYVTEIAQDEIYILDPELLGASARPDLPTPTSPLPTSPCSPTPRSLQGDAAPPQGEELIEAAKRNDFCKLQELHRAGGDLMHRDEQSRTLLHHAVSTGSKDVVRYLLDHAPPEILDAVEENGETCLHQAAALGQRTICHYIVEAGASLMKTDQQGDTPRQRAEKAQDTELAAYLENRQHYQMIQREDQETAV
Method in brief: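 Enzyme: full-length human DGKζ M1-V929, produced in baculovirus-infected Sf9 cells; substrate DAG/PS micelles. Buffer 50 mM HEPES, 10 mM MgCl2, 0.01 mM CaCl2, 0.1 mM Na3VO4.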

T1 sequence (P23743 whole entry): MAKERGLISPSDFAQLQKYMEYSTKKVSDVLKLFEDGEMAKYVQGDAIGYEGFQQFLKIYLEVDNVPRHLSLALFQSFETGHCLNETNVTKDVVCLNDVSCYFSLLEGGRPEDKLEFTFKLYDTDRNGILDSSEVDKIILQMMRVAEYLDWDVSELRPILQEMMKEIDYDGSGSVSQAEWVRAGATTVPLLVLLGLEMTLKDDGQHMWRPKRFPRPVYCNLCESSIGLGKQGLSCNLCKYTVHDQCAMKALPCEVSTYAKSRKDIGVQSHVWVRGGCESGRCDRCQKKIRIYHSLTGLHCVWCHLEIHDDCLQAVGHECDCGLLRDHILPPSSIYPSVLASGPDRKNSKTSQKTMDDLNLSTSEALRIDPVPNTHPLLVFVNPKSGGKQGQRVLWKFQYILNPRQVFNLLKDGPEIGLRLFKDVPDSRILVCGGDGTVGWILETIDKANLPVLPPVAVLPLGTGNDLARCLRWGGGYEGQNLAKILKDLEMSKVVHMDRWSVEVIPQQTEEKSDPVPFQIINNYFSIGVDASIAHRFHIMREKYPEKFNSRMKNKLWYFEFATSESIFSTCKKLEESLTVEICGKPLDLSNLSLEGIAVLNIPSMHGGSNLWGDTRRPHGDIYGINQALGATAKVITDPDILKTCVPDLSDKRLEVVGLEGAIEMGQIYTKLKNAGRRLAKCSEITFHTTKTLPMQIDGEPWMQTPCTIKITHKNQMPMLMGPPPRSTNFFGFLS

IC50 [1] [nM]	IC50 [2] [nM]	Compound
> 150000	331	CCn1c(CC#N)nc2c(N3C[C@@H](C)N(C(C)c4nc5c(cc4Cl)OCC(C)(C)O5)C[C@@H]3C)nc(=O)n(C)c21 (stereo partly drawn) [Compound A160, 2-(6-((2S,5R)-4-(1-(7-chloro-3,3-dimethyl-2,3-dihydro-[1,4]dioxino[2,3-b]pyridin-6-yl)ethyl)-2,5-dimethylpiperazin-1-yl)-9-ethyl-3-methyl-2-oxo-3,9-dihydro-2H-purin-8-yl)acetonitrile]
60500	33	CC(c1nc2c(cc1F)OCC(C)(C)O2)N1C[C@H](C)N(c2nc(=O)n(C)c3c2nc(CC#N)n3C)C[C@H]1C (stereo partly drawn) [Compound A162, 2-(6-((2S,5R)-4-(1-(7-fluoro-3,3-dimethyl-2,3-dihydro-[1,4]dioxino[2,3-b]pyridin-6-yl)ethyl)-2,5-dimethylpiperazin-1-yl)-3,9-dimethyl-2-oxo-3,9-dihydro-2H-purin-8-yl)acetonitrile]
125000	31	CC(c1cc(F)c2c(n1)OC(C)(C)CO2)N1C[C@H](C)N(c2nc(=O)n(C)c3c2nc(CC#N)n3C)C[C@H]1C (stereo partly drawn) [Compound A164, 2-(6-((2S,5R)-4-(1-(8-fluoro-3,3-dimethyl-2,3-dihydro-[1,4]dioxino[2,3-b]pyridin-6-yl)ethyl)-2,5-dimethylpiperazin-1-yl)-3,9-dimethyl-2-oxo-3,9-dihydro-2H-purin-8-yl)acetonitrile]
> 150000	69	CC(c1ccc2c(n1)OC(C)(C)CO2)N1C[C@H](C)N(c2nc(=O)n(C)c3c2nc(CC#N)n3CC(F)F)C[C@H]1C (stereo partly drawn) [Compound A165, 2-(9-(2,2-difluoroethyl)-6-((2S,5R)-4-(1-(3,3-dimethyl-2,3-dihydro-[1,4]dioxino[2,3-b]pyridin-6-yl)ethyl)-2,5-dimethylpiperazin-1-yl)-3-methyl-2-oxo-3,9-dihydro-2H-purin-8-yl)acetonitrile]
22200	5	CCn1c(CC#N)nc2c(N3C[C@@H](C)N(C(C)c4ccc5c(c4F)OC(C)(C)O5)C[C@@H]3C)nc(=O)n(C)c21 (stereo partly drawn) [Compound A175, 2-(9-ethyl-6-((2S,5R)-4-(1-(4-fluoro-2,2-dimethylbenzo[d][1,3]dioxol-5-yl)ethyl)-2,5-dimethylpiperazin-1-yl)-3-methyl-2-oxo-3,9-dihydro-2H-purin-8-yl)acetonitrile]
> 150000	4440	CCn1c(CC#N)nc2c(N3C[C@@H](C)N(C(C)c4ccc5c(n4)OC(C)(C)C5)C[C@@H]3C)nc(=O)n(C)c21 (stereo partly drawn) [Compound A180, 2-(6-((2S,5R)-4-(1-(2,2-dimethyl-2,3-dihydrofuro[2,3-b]pyridin-6-yl)ethyl)-2,5-dimethylpiperazin-1-yl)-9-ethyl-3-methyl-2-oxo-3,9-dihydro-2H-purin-8-yl)acetonitrile]
> 150000	17	CCn1c(CC#N)nc2c(N3C[C@@H](C)N(C(C)c4ccc5c(n4)C(C)(C)CO5)C[C@@H]3C)nc(=O)n(C)c21 (stereo partly drawn) [Compound A181, 2-(6-((2S,5R)-4-(1-(3,3-dimethyl-2,3-dihydrofuro[3,2-b]pyridin-5-yl)ethyl)-2,5-dimethylpiperazin-1-yl)-9-ethyl-3-methyl-2-oxo-3,9-dihydro-2H-purin-8-yl)acetonitrile]

Further lines, the molecule ahead of its results:

Compound	IC50 [1] [nM]	IC50 [2] [nM]
CC(c1cc2ccccc2cn1)N1C[C@H](C)N(c2nc(=O)n(C)c3c2nc(CC#N)n3C)C[C@H]1C (stereo partly drawn) [Compound A154, 2-(6-((2S,5R)-4-(1-(isoquinolin-3-yl)ethyl)-2,5-dimethylpiperazin-1-yl)-3,9-dimethyl-2-oxo-3,9-dihydro-2H-purin-8-yl)acetonitrile]	2430	178
CCn1c(CC#N)nc2c(N3C[C@@H](C)N(C(C)c4ccc5c(=O)cc(C)n(C)c5c4)C[C@@H]3C)nc(=O)n(C)c21 (stereo partly drawn) [Compound A155, 2-(6-((2S,5R)-4-(1-(1,2-dimethyl-4-oxo-1,4-dihydroquinolin-7-yl)ethyl)-2,5-dimethylpiperazin-1-yl)-9-ethyl-3-methyl-2-oxo-3,9-dihydro-2H-purin-8-yl)acetonitrile]	101000	1210
CC(c1ccc2c(c1)OC(C)(C)O2)N1C[C@H](C)N(c2nc(=O)n(C)c3c2nc(CC#N)n3CC(F)F)C[C@H]1C (stereo partly drawn) [Compound A166, 2-(9-(2,2-difluoroethyl)-6-((2S,5R)-4-(1-(2,2-dimethylbenzo[d][1,3]dioxol-5-yl)ethyl)-2,5-dimethylpiperazin-1-yl)-3-methyl-2-oxo-3,9-dihydro-2H-purin-8-yl)acetonitrile]	26100	14
CC(c1ccc2c(c1)OC(F)(F)O2)N1C[C@H](C)N(c2nc(=O)n(C)c3c2nc(CC#N)n3C)C[C@H]1C (stereo partly drawn) [Compound A167, 2-(6-((2S,5R)-4-(1-(2,2-difluorobenzo[d][1,3]dioxol-5-yl)ethyl)-2,5-dimethylpiperazin-1-yl)-3,9-dimethvl-2-oxo-3,9-dihydro-2H-purin-8-yl)acetonitrile]	19000	90
CCn1c(CC#N)nc2c(N3C[C@@H](C)N(C(C)c4ccc5c(c4)OC(C)(CC)O5)C[C@@H]3C)nc(=O)n(C)c21 (stereo partly drawn) [Compound A168, 2-(9-ethyl-6-((2S,5R)-4-(1-(2-ethyl-2-methylbenzo[d][1,3]dioxol-5-yl)ethyl)-2,5-dimethylpiperazin-1-yl)-3-methyl-2-oxo-3,9-dihydro-2H-purin-8-yl)acetonitrile]	64300	26
CCn1c(CC#N)nc2c(N3C[C@@H](C)N(C(C)c4cc5c(cc4Cl)OC(C)(C)O5)C[C@@H]3C)nc(=O)n(C)c21 (stereo partly drawn) [Compound A170, 2-(6-((2S,5R)-4-(1-(6-chloro-2,2-dimethylbenzo[d][1,3]dioxol-5-yl)ethyl)-2,5-dimethylpiperazin-1-yl)-9-ethyl-3-methyl-2-oxo-3,9-dihydro-2H-purin-8-yl)acetonitrile]	> 150000	1180
CCn1c(CC#N)nc2c(N3C[C@@H](C)N(C(C)c4cc(Cl)c5c(c4)OC(C)(C)O5)C[C@@H]3C)nc(=O)n(C)c21 (stereo partly drawn) [Compound A171, 2-(6-((2S,5R)-4-(1-(7-chloro-2,2-dimethylbenzo[d][1,3]dioxol-5-yl)ethyl)-2,5-dimethylpiperazin-1-yl)-9-ethyl-3-methyl-2-oxo-3,9-dihydro-2H-purin-8-yl)acetonitrile]	65800	107
CCn1c(CC#N)nc2c(N3C[C@@H](C)N(C(C)c4cc(C)c5c(c4)OC(C)(C)O5)C[C@@H]3C)nc(=O)n(C)c21 (stereo partly drawn) [Compound A177, 2-(6-((2S,5R)-2,5-dimethyl-4-(1-(2,2,7-trimethylbenzo[d][1,3]dioxol-5-yl)ethyl)piperazin-1-yl)-9-ethyl-3-methyl-2-oxo-3,9-dihydro-2H-purin-8-yl)acetonitrile]	72600	168
CCn1c(CC#N)nc2c(N3C[C@@H](C)N(C(C)c4ccc5c(c4)C(=O)N(C(C)C)C5=O)C[C@@H]3C)nc(=O)n(C)c21 (stereo partly drawn) [Compound A178, 2-(9-ethyl-6-((2S,5R)-4-(1-(2-isopropyl-1,3-dioxoisoindolin-5-yl)ethyl)-2,5-dimethylpiperazin-1-yl)-3-methyl-2-oxo-3,9-dihydro-2H-purin-8-yl)acetonitrile]	92400	15
CCn1c(CC#N)nc2c(N3C[C@@H](C)N(C(C)c4ccc5c(c4)OC(C)(C)C5=O)C[C@@H]3C)nc(=O)n(C)c21 (stereo partly drawn) [Compound A179, 2-(6-((2S,5R)-4-(1-(2,2-dimethyl-3-oxo-2,3-dihydrobenzofuran-6-yl)ethyl)-2,5-dimethylpiperazin-1-yl)-9-ethyl-3-methyl-2-oxo-3,9-dihydro-2H-purin-8-yl)acetonitrile]	69000	6
CCn1c(CC#N)nc2c(N3C[C@@H](C)N(C(=O)c4ccc5c(n4)C(C)(C)CO5)C[C@@H]3C)nc(=O)n(C)c21 [Compound A182, 2-(6-((2S,5R)-4-(3,3-dimethyl-2,3-dihydrofuro[3,2-b]pyridine-5-carbonyl)-2,5-dimethylpiperazin-1-yl)-9-ethyl-3-methyl-2-oxo-3,9-dihydro-2H-purin-8-yl)acetonitrile]	> 150000	499
CCn1c(CC#N)nc2c(N3C[C@@H](C)N(C(C)c4ccc5c(c4)C(C)(C)CO5)C[C@@H]3C)nc(=O)n(C)c21 (stereo partly drawn) [Compound A183, 2-(6-((2S,5R)-4-(1-(3,3-dimethyl-2,3-dihydrobenzofuran-5-yl)ethyl)-2,5-dimethylpiperazin-1-yl)-9-ethyl-3-methyl-2-oxo-3,9-dihydro-2H-purin-8-yl)acetonitrile]	> 150000	4
CCn1c(CC#N)nc2c(N3C[C@@H](C)N(C(C)c4cccc5c4OC(C)(C)O5)C[C@@H]3C)nc(=O)n(C)c21 (stereo partly drawn) [Compound A186, 2-(6-((2S,5R)-4-(1-(2,2-dimethylbenzo[d][1,3]dioxol-4-yl)ethyl)-2,5-dimethylpiperazin-1-yl)-9-ethyl-3-methyl-2-oxo-3,9-dihydro-2H-purin-8-yl)acetonitrile]	143000	156
CCn1c(CC#N)nc2c(N3C[C@@H](C)N(C(C)c4cccc5c4OC(F)(F)O5)C[C@@H]3C)nc(=O)n(C)c21 (stereo partly drawn) [Compound A187, 2-(6-((2S,5R)-4-(1-(2,2-difluorobenzo[d][1,3]dioxol-4-yl)ethyl)-2,5-dimethylpiperazin-1-yl)-9-ethyl-3-methyl-2-oxo-3,9-dihydro-2H-purin-8-yl)acetonitrile]	115000	407
